Test results from PubChem BioAssay (NCI).
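Grown in 96-well plates, cells were treated for 48 hours with each compound at five concentrations. Insufficient inhibition: endpoint recorded as highest concentration tested. TGI: concentration producing complete growth inhibition.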

Experiments:
Experiment in all cases: NCI-60 cell line screen, 48 h
U251 CNS = tested on: U251 CNS
NCI-H226 lung = tested on: NCI-H226 lung
SF-539 CNS = tested on: SF-539 CNS
HOP-92 NSCLC = tested on: HOP-92 NSCLC
T-47D breast = tested on: T-47D breast
HCT-116 colon = tested on: HCT-116 colon
MDA-MB-435 = tested on: MDA-MB-435
A549 NSCLC = tested on: A549 NSCLC
SNB-75 CNS = tested on: SNB-75 CNS
SR leukemia = tested on: SR leukemia
K-562 leukemia = tested on: K-562 leukemia
UACC-62 melanoma = tested on: UACC-62 melanoma
HS 578T breast = tested on: HS 578T breast
MDA-N = tested on: MDA-N
RXF 393 renal = tested on: RXF 393 renal
SF-268 CNS = tested on: SF-268 CNS
COLO 205 colon = tested on: COLO 205 colon
HOP-62 NSCLC = tested on: HOP-62 NSCLC
OVCAR-4 ovarian = tested on: OVCAR-4 ovarian
SK-MEL-28 melanoma = tested on: SK-MEL-28 melanoma
UACC-257 melanoma = tested on: UACC-257 melanoma
CAKI-1 renal = tested on: CAKI-1 renal
OVCAR-8 ovarian = tested on: OVCAR-8 ovarian
SN12C renal = tested on: SN12C renal
MALME-3M melanoma = tested on: MALME-3M melanoma
KM12 colon = tested on: KM12 colon
TK-10 renal = tested on: TK-10 renal
NCI-H522 lung = tested on: NCI-H522 lung
MOLT-4 leukemia = tested on: MOLT-4 leukemia
HCC-2998 colon = tested on: HCC-2998 colon
MDA-MB-231 breast = tested on: MDA-MB-231 breast
HT29 colon = tested on: HT29 colon
CCRF-CEM leukemia = tested on: CCRF-CEM leukemia
BT-549 breast = tested on: BT-549 breast
NCI-H460 lung = tested on: NCI-H460 lung
NCI/ADR-RES ovarian = tested on: NCI/ADR-RES ovarian
UO-31 renal = tested on: UO-31 renal
ACHN renal = tested on: ACHN renal
NCI-H23 lung = tested on: NCI-H23 lung
SK-OV-3 ovarian = tested on: SK-OV-3 ovarian
MCF7 breast = tested on: MCF7 breast
HCT-15 colon = tested on: HCT-15 colon
SW-620 colon = tested on: SW-620 colon
SF-295 CNS = tested on: SF-295 CNS
DU-145 prostate = tested on: DU-145 prostate
OVCAR-5 ovarian = tested on: OVCAR-5 ovarian
SK-MEL-5 melanoma = tested on: SK-MEL-5 melanoma
IGROV1 ovarian = tested on: IGROV1 ovarian
RPMI-8226 leukemia = tested on: RPMI-8226 leukemia
PC-3 prostate = tested on: PC-3 prostate
M14 melanoma = tested on: M14 melanoma
SNB-19 CNS = tested on: SNB-19 CNS
OVCAR-3 ovarian = tested on: OVCAR-3 ovarian
786-0 renal = tested on: 786-0 renal
SK-MEL-2 melanoma = tested on: SK-MEL-2 melanoma
LOX IMVI melanoma = tested on: LOX IMVI melanoma
EKVX NSCLC = tested on: EKVX NSCLC
A498 renal = tested on: A498 renal
HL-60(TB) leukemia = tested on: HL-60(TB) leukemia

Measured: TGI

O=C1CC(=O)NC(=NNS(=O)(=O)c2ccccc2)N1
not listed: LOX IMVI melanoma | EKVX NSCLC | A498 renal | HL-60(TB) leukemia
> 100 µM: all other assays above

O=C(CNC(c1ccccc1)(c1ccccc1)c1ccccc1)NC1CCCCC1NC(=O)CNC(c1ccccc1)(c1ccccc1)c1ccccc1 (stereo unspecified)
91.6 µM: HOP-62 NSCLC
78.7 µM: HOP-92 NSCLC
47.6 µM: EKVX NSCLC
not listed: NCI-H226 lung | SNB-75 CNS | RXF 393 renal | M14 melanoma
> 100 µM: all other assays above

CC(C)(C)CC(N)=O
not listed: RXF 393 renal | MALME-3M melanoma | MOLT-4 leukemia | RPMI-8226 leukemia
> 100 µM: all other assays above

COc1ccc2[nH]c3c(C)c4ccnc(NCCCN(C)CCCNc5ccc6ncn7c8ccccc8c(=O)c5c67)c4c(C)c3c2c1
4.29 µM: MDA-N
0.379 µM: SF-539 CNS
1.48 µM: A549 NSCLC
3.45 µM: HCT-15 colon
7.38 µM: SNB-75 CNS
3.99 µM: BT-549 breast
4.36 µM: COLO 205 colon
1.32 µM: IGROV1 ovarian
4.65 µM: KM12 colon
17.3 µM: SF-268 CNS
4.14 µM: DU-145 prostate
6.8 µM: SK-OV-3 ovarian
6.94 µM: OVCAR-4 ovarian
2.48 µM: EKVX NSCLC | M14 melanoma
1.2 µM: MDA-MB-231 breast
4.56 µM: RPMI-8226 leukemia
3.13 µM: MOLT-4 leukemia
1.94 µM: NCI-H23 lung
0.918 µM: ACHN renal
0.561 µM: CAKI-1 renal
0.784 µM: HOP-62 NSCLC
1.03 µM: HT29 colon
3.42 µM: SNB-19 CNS
2.61 µM: MCF7 breast
2.54 µM: NCI-H226 lung
1.61 µM: SR leukemia
4.45 µM: MDA-MB-435
21.9 µM: SK-MEL-28 melanoma
4.55 µM: NCI/ADR-RES ovarian
1.12 µM: U251 CNS
4.25 µM: K-562 leukemia
4.61 µM: SK-MEL-5 melanoma
0.682 µM: NCI-H460 lung
3.01 µM: HCT-116 colon
0.606 µM: LOX IMVI melanoma
9.46 µM: T-47D breast
7.16 µM: OVCAR-8 ovarian
5.92 µM: MALME-3M melanoma
19.2 µM: HOP-92 NSCLC
4.21 µM: UO-31 renal | PC-3 prostate
1.85 µM: SF-295 CNS
5.2 µM: OVCAR-5 ovarian
2.9 µM: UACC-257 melanoma
0.623 µM: RXF 393 renal
5.62 µM: CCRF-CEM leukemia
15.2 µM: A498 renal
3.38 µM: SN12C renal
25 µM: HS 578T breast | SW-620 colon
1.24 µM: NCI-H522 lung
6.56 µM: OVCAR-3 ovarian
8.74 µM: SK-MEL-2 melanoma
5.49 µM: TK-10 renal
9.18 µM: UACC-62 melanoma
